Measured values reported in patent US20260116910A1, “POLYCYCLIC COMPOUNDS AND METHODS THEREOF” (HEPAITECH (BEIJING) BIOPHARMA TECHNOLOGY CO., LTD., priority 2021, published 2026).
Where two headings read alike, the source gives them in different places.

How the values were obtained:
human FXR (NR1H4) = biological target: T1, human FXR (NR1H4) (Homo sapiens, UniProt Q96RI1); assay: Human FXR (NR1H4) agonist assessment, FXRE-NanoLuc reporter in HEK293T cells; assay type: cell-based
T1 sequence (Q96RI1 1-476 isoform Q96RI1-1): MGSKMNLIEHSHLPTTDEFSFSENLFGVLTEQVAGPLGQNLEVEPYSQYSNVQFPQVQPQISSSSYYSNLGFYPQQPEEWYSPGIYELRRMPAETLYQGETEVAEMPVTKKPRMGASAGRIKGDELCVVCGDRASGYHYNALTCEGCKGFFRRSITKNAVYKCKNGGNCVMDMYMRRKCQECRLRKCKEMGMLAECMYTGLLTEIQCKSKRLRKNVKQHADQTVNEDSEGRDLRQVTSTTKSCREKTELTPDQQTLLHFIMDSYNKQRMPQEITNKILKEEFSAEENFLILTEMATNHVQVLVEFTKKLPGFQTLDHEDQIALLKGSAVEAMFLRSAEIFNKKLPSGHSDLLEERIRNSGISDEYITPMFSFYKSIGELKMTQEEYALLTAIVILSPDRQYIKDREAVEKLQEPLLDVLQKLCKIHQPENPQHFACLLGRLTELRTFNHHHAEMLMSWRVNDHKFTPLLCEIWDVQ
Procedure, shortened: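 HEK293T cells stably expressing human FXR with an FXRE-NanoLuc reporter were treated with compounds for 24 hr at 37 °C, with 0.01% DMSO as negative control. Medium was read for luminescence after 5 min with coelenterazine. EC50 was fitted by sigmoid to concentration-response data.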

MRGPRX4 = MRGPRX4 (Homo sapiens, UniProt Q96LA9); assay: MRGPRX4 activation, Fluo-8 Ca2+ FLIPR assay in HEK293T cells stably expressing MRGPRX4; assay type: cell-based; design: key to MRGPRX4 activation, Average / MRGPRX4 activation, Ave.: fluorescence change dF/F0
Sequence of MRGPRX4 (Q96LA9 whole entry): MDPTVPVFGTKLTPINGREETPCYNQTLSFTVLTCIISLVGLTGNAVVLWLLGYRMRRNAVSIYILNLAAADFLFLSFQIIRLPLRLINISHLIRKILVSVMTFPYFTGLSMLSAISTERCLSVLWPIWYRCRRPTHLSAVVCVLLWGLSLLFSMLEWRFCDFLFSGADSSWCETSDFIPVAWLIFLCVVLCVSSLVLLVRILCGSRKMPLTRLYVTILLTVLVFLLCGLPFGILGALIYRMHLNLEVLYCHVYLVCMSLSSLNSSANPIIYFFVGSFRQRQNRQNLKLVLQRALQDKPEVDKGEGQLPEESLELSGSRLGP
Procedure, shortened: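 Cells seeded overnight to >95% confluence, loaded 40-60 min at room temperature with 2 μM Fluo-8 AM, then kept in HHBS. Baseline read 30 s, compound added, signal followed 150 s more.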

[1] = FXR activation, HEK293T FXRE-NanoLuc reporter, 24 hr
[2] = FXR activation, HEK293T FXRE-NanoLuc reporter, 24 hr, read-out: EC50
[3] = MRGPRX4 activation, Ca2+ fluorescence, no activation in tested range reported as III, read-out: Activity (EC50 μM)

Compound	Efficacy (maximum measured induction of NanoLuc, normalized to CDCA set as 100%) (human FXR (NR1H4); [1])	EC50 (human FXR (NR1H4); [2])	MRGPRX4 activation, Average (MRGPRX4; E3-9, Conc. (Log[M]) −4.0)	MRGPRX4 activation, Average (MRGPRX4; E3-9, Conc. (Log[M]) −4.5)	MRGPRX4 activation, Average (MRGPRX4; E3-9, Conc. (Log[M]) −5.0)	MRGPRX4 activation, Average (MRGPRX4; E3-9, Conc. (Log[M]) −5.4)	MRGPRX4 activation, Average (MRGPRX4; E3-9, Conc. (Log[M]) −5.9)	MRGPRX4 activation, Average (MRGPRX4; E3-9, Conc. (Log[M]) −6.4)	MRGPRX4 activation, Average (MRGPRX4; E3-9, Conc. (Log[M]) −6.9)	MRGPRX4 activation, Average (MRGPRX4; E3-9, Conc. (Log[M]) −7.3)	MRGPRX4 activation, Average (MRGPRX4; E3-9, Conc. (Log[M]) −7.8)	MRGPRX4 activation, Average (MRGPRX4; E3-9, Conc. (Log[M]) −8.3)	EC50 (MRGPRX4; [3])	further results
CC[C@H]1[C@@H](O)[C@@H]2[C@H](CC[C@]3(C)[C@@H]([C@H](C)CCNS(=O)(=O)C4CC4)CC[C@@H]23)[C@@]2(C)CCCC[C@@H]12 [6-5]	C (100%<efficacy <=300%)	1 to 10 µM	0.025	0.020	0.018	0.020	0.018	0.016	0.018	0.016	0.020	0.018	> 100 µM	
CC[C@H]1[C@@H](O)[C@@H]2[C@H](CC[C@]3(C)[C@@H]([C@H](C)CCN=C=S)CC[C@@H]23)[C@@]2(C)CCCC[C@@H]12 [7-1]	C (100%<efficacy <=300%)		0.020	0.018	0.013	0.013	0.011	0.013	0.004	0.008	0.006	0.011		EC50 (human FXR (NR1H4)): > 10 µM; EC50 (MRGPRX4): > 100 µM
CC[C@H]1[C@@H](O)[C@@H]2[C@H](CC[C@]3(C)[C@@H]([C@H](C)CCNC(=O)C(=O)NS(=O)(=O)c4cccs4)CC[C@@H]23)[C@@]2(C)CCCC[C@@H]12 [8-2]		< 1 µM	0.020	0.018	0.018	0.016	0.018	0.011	0.018	0.008	0.011	0.006	> 100 µM	Efficacy (maximum measured induction of NanoLuc, normalized to CDCA set as 100%) (human FXR (NR1H4)): B (key: A: efficacy >400%; B: 300%<efficacy <=400%; C: 100%<efficacy <=300%; D: efficacy <=100%)
CC[C@H]1[C@@H](O)[C@@H]2[C@H](CC[C@]3(C)[C@@H]([C@H](C)CCNC(=O)C(=O)NS(=O)(=O)c4ccc(C(C)(C)CF)cc4)CC[C@@H]23)[C@@]2(C)CCCC[C@@H]12 [8-3]	C (100%<efficacy <=300%)	< 1 µM	0.023	0.016	0.016	0.023	0.025	0.013	0.013	0.013	0.011	0.018	> 100 µM	
CC[C@H]1[C@@H](O)[C@@H]2[C@H](CC[C@]3(C)[C@@H]([C@H](C)CCNC(=O)C(=O)NS(=O)(=O)c4cc(F)cc(F)c4)CC[C@@H]23)[C@@]2(C)CCCC[C@@H]12 [8-4]	B (300%<efficacy <=400%)	< 1 µM											> 100 µM	MRGPRX4 activation, Ave. (MRGPRX4; E3-7, Conc. (Log[M]) −4): −0.041; MRGPRX4 activation, Ave. (MRGPRX4; E3-7, Conc. (Log[M]) −4.5): −0.027; MRGPRX4 activation, Ave. (MRGPRX4; E3-7, Conc. (Log[M]) −5): −0.014; MRGPRX4 activation, Ave. (MRGPRX4; E3-7, Conc. (Log[M]) −5.5): −0.014; MRGPRX4 activation, Ave. (MRGPRX4; E3-7, Conc. (Log[M]) −6): 0.000; MRGPRX4 activation, Ave. (MRGPRX4; E3-7, Conc. (Log[M]) −7): 0.000
CC[C@H]1[C@@H](O)[C@@H]2[C@H](CC[C@]3(C)[C@@H]([C@H](C)CCNC(=O)C(=O)NS(=O)(=O)c4cc(F)ccc4F)CC[C@@H]23)[C@@]2(C)CCCC[C@@H]12 [8-5]	C (100%<efficacy <=300%)	< 1 µM	0.030	0.016	0.018	0.018	0.018	0.016	0.020	0.016	0.011	0.011	> 100 µM	
CC[C@H]1[C@@H](O)[C@@H]2[C@H](CC[C@]3(C)[C@@H]([C@H](C)CCNC(=O)NS(=O)(=O)c4ccc(C(C)(C)CF)cc4)CC[C@@H]23)[C@@]2(C)CC[C@H](F)C[C@@H]12 [9-1]	B (300%<efficacy <=400%)	< 1 µM	0.019	0.021	0.012	0.018	0.014	0.019	0.016	0.016	0.012	0.018	> 100 µM	
CC[C@H]1[C@@H](O)[C@@H]2[C@H](CC[C@]3(C)[C@@H]([C@H](C)CCNC(=O)NS(=O)(=O)c4cc(F)ccc4F)CC[C@@H]23)[C@@]2(C)CC[C@H](F)C[C@@H]12 [9-2]	B (300%<efficacy <=400%)	< 1 µM	0.035	0.001	0.002	0.019	0.018	0.018	0.014	0.019	0.016	0.019	50 to 100 µM	MRGPRX4 activation, fluorescence change (dF/F0), Average (MRGPRX4; Conc. (Log[M]) −4): 0.655; MRGPRX4 activation, fluorescence change (dF/F0), Average (MRGPRX4; Conc. (Log[M]) −4.5): 0.162; MRGPRX4 activation, fluorescence change (dF/F0), Average (MRGPRX4; Conc. (Log[M]) −5): 0.011; MRGPRX4 activation, fluorescence change (dF/F0), Average (MRGPRX4; Conc. (Log[M]) −5.5): −0.068; MRGPRX4 activation, fluorescence change (dF/F0), Average (MRGPRX4; Conc. (Log[M]) −6): −0.030; MRGPRX4 activation, fluorescence change (dF/F0), Average (MRGPRX4; Conc. (Log[M]) −7): −0.029; MRGPRX4 activation, fluorescence change (dF/F0), Average (MRGPRX4; Conc. (Log[M]) −8): −0.035; MRGPRX4 activation, fluorescence change (dF/F0), Average (MRGPRX4; Conc. (Log[M]) −9): −0.072
CC[C@H]1[C@@H](O)[C@@H]2[C@H](CC[C@]3(C)[C@@H]([C@H](C)CCNC(=O)NS(=O)(=O)c4cc(F)cc(F)c4)CC[C@@H]23)[C@@]2(C)CC[C@H](F)C[C@@H]12 [9-3]	B (300%<efficacy <=400%)	< 1 µM	0.006	0.004	0.018	0.019	0.019	0.016	0.014	0.018	0.016	0.016	> 100 µM	
CC[C@H]1[C@@H](O)[C@@H]2[C@H](CC[C@]3(C)[C@@H]([C@H](C)CCNC(=O)NS(=O)(=O)c4cccs4)CC[C@@H]23)[C@@]2(C)CC[C@H](F)C[C@@H]12 [9-4]	C (100%<efficacy <=300%)	< 1 µM	−0.003	0.004	0.014	0.019	0.019	0.018	0.019	0.021	0.018	0.019	> 100 µM	
